Reference: PMC9154192 (PLoS Biology, 2022)

Test system: GFP-expressing M. tuberculosis
Format: cell-based, Mycobacterium tuberculosis
Settings: 1 μg/ml

CCCCOc1ccc2cc(CN3C(=O)CC[C@H]3C(=O)OC)c3cc(OC)c(OC)cc3c2c1 [PP2S, Methyl (S)-1-((3-butoxy-6,7-dimethoxyphenanthren-9-yl)methyl)-5-oxopyrrolidine-2-carboxylate]
green signal of GFP-expressing M. tuberculosis in infected cells: decrease in green signal
